Source: patent publication US20240024273A1, “TOPICAL ADMINISTRATION OF 2-(DIETHYLAMINO)ETHYL 2-(4-ISOBUTYLPHENYL)PROPRIONATE FOR TREATMENT OF DISEASES” (TECHFIELDS PHARMA CO., LTD., priority 2020, published 2024)

How the values were obtained:
Format in all cases: in vivo, human
[1] = test system: osteoarthritis of the knee; experiment: Second Phase 2 study: WOMAC difficulty performing daily activities (functional ability) subscale score
Excerpt: This is a Phase 2, multicenter, randomized, double blind (within dose), Ibuprofen-placebo controlled, parallel group, dose range finding study to evaluate the efficacy, safety, and PK of 2-(diethylamino)ethyl 2-(4-isobutylphenyl)propionate spray in adult subjects with clinically symptomatic OA of the knee. For subjects with bilateral knee pain, both knees will be treated, but the most symptomatic knee (ie, the most painful knee as measured by the Western Ontario and McMaster University Osteoarthritis Index [WOMAC® 3.1] pain subscale score at Screening) will be designated as the target knee for efficacy analyses. For subjects with unilateral knee pain, only the symptomatic (target) knee will be treated.
The VAS version of the WOMAC will be used for the Primary and Secondary Efficacy Endpoints. Efficacy endpoints will be assessed at Screening and Baseline (Day 1) and at the Week 2, Week 4, Week 8, and Week 12/EOS visits.
(§1) 4.9.2. Secondary Efficacy Endpoints: • 1. Change from Baseline in the WOMAC (VAS) pain subscale score for the target knee at 2, 8, and 12 weeks of treatment; • 2. Change from Baseline in the WOMAC (VAS) stiffness subscale scores for the target knee and WOMAC (VAS) functional ability subscale scores at 2, 4, 8, and 12 weeks of treatment; • 3. Change from Baseline in the overall WOMAC (VAS) score at 2, 4, 8, and 12 weeks of treatment; • 4. Subject's global assessment of disease status of the target knee at 2, 4, 8, and 12 weeks of treatment; • 5. Subject's global assessment of response to therapy of the target knee at 2, 4, 8, and 12 weeks of treatment; • 6. Amount of rescue medication (acetaminophen) consumed per day for target knee pain.
The Secondary Efficacy Endpoints, change from Baseline in the WOMAC subscale scores for pain, stiffness, and functional ability, and overall WOMAC score at 2, 4, 8, and 12 weeks of treatment, will be analyzed using the same methods as for the Primary Efficacy Endpoint.

[2] = test system: osteoarthritis of the knee; experiment: Second Phase 2 study: Subject's pain Assessment Scores (SPA)
Experimental: Subjects will record the following information in a Daily Diary starting at Screening: the amount of knee pain in the target knee while walking during the preceding 24 hours (using a 100 mm visual analog scale [VAS]), the times and number of sprays for each administration of study medication, the times when the subject washes his/her knees and/or takes a shower, the number of tablets of rescue medication taken that day and the times taken, the reason for taking the rescue medication (e.g., knee pain, headache, low back pain), any other concomitant medications taken that day, and any AEs occurring that day.

[3] = test system: osteoarthritis of the knee; experiment: Second Phase 2 study: Subject Global Impression of Change (SGIC); details: Week 12
Excerpt: as §1

[4] = test system: osteoarthritis of the knee; experiment: Second Phase 2 study: Subject's Global Assessment of Disease Status (SGADS)
Excerpt: as §1

[5] = Baseline, oral, 3 × 400 mg (n = 20), first 130 subjects
[6] = Week 12, oral, 3 × 400 mg (n = 20), first 130 subjects
[7] = all subjects, Oral Ibuprofen 3 × 400 mg, n = 48, Week 12
[8] = all subjects, Oral Ibuprofen 3 × 400 mg, n = 48 vs. Placebo n = 48
[9] = oral 3×400 mg, first 130 subjects
[10] = oral, 3 x 400 mg (n = 20), first 130 subjects
[11] = all subjects, Oral Ibuprofen 3 × 400 mg, n = 48

## CC(C)Cc1ccc(C(C)C(=O)O)cc1 (stereo not shown) [Ibuprofen, 2-(4-isobutylphenyl)propionic acid, reference compound]
[1]; [5]
  WOMAC Difficulty Performing Daily Activities Subscale Scores, Baseline (LS Mean): 65.5 mm
[1]; [6]
  WOMAC Difficulty Performing Daily Activities Subscale Scores, % of improvement from Placebo: −3.3%
  WOMAC Difficulty Performing Daily Activities Subscale Scores, % of improvement from baseline: −33.0%
  WOMAC Difficulty Performing Daily Activities Subscale Scores, Changes from Baseline (LS Mean): −21.6 mm
  WOMAC Difficulty Performing Daily Activities Subscale Scores, Different from placebo (LS Mean): −3.5 mm
  WOMAC Difficulty Performing Daily Activities Subscale Scores, Week 12 (LS Mean): 43.9 mm
[1]; [7]
  WOMAC Difficulty Performing Daily Activities Subscale Scores, % of improvement from Placebo: −4.3%
  WOMAC Difficulty Performing Daily Activities Subscale Scores, % of improvement from baseline: −41.5%
  WOMAC Difficulty Performing Daily Activities Subscale Scores, Changes from Baseline (LS Mean): −25.3 mm
  WOMAC Difficulty Performing Daily Activities Subscale Scores, Week 12 (LS Mean): 35.7 mm
[1]; [8]
  WOMAC Functional Ability, difference vs. Placebo: −3.4 mm
[1]; [9]
  WOMAC functional ability, difference from placebo: −3.5 mm
[2]; [5]
  Subject’s pain Assessment Scores, Baseline (LS Mean): 71.2 mm
[2]; [6]
  Subject’s pain Assessment Scores, % of improvement from baseline: −36.2%
  Subject’s pain Assessment Scores, % of improvement from placebo: −7.0%
  Subject’s pain Assessment Scores, Changes from Baseline (LS Mean): −25.8 mm
  Subject’s pain Assessment Scores, Different from placebo (LS Mean): −6.9 mm
  Subject’s pain Assessment Scores, Week 12 (LS Mean): 45.4 mm
[2]; [7]
  Subject's pain Assessment Scores, % of improvement from Placebo: −8.4%
  Subject's pain Assessment Scores, % of improvement from baseline: −45.4%
  Subject's pain Assessment Scores, Changes from Baseline (LS Mean): −30.5 mm
  Subject's pain Assessment Scores, Week 12 (LS Mean): 36.6 mm
[2]; [8]
  SPA, difference vs. Placebo: −6.4 mm
[2]; [9]
  SPA, difference from placebo: 6.1 mm
[3]; [10]
  SGIC: Good and Very good: 55.0%
  SGIC: Poor and Very Poor: 10.0%
  SGIC: fair: 35.0%
[3]; [11]
  SGIC, Good and Very good: 47.9%
  SGIC, Poor and Very Poor: 8.3%
  SGIC, fair: 43.8%
[3]; oral 3×400 mg/day, first 130 subjects
  Subject's satisfaction rate (SGIC good and very good): 55%
[4]; [5]
  Subject’s Global Assessment of Disease Status Scores, Baseline (LS Mean): 75.2 mm
[4]; [6]
  Subject’s Global Assessment of Disease Status Scores, % of improvement from baseline: −38.4%
  Subject’s Global Assessment of Disease Status Scores, % of improvement from placebo: −2.0%
  Subject’s Global Assessment of Disease Status Scores, Changes from Baseline (LS Mean): −28.9 mm
  Subject’s Global Assessment of Disease Status Scores, Different from placebo (LS Mean): −4.4 mm
  Subject’s Global Assessment of Disease Status Scores, Week 12 (LS Mean): 46.3 mm
[4]; [7]
  Subject's Global Assessment of Disease Status Scores, % of improvement from Placebo: −0.7%
  Subject's Global Assessment of Disease Status Scores, % of improvement from baseline: −46.6%
  Subject's Global Assessment of Disease Status Scores, Changes from Baseline (LS Mean): −33.3 mm
  Subject's Global Assessment of Disease Status Scores, Week 12 (LS Mean): 38.1 mm
[4]; [8]
  SGADS, difference vs. Placebo: −2.9 mm
[4]; [9]
  SGADS, difference from placebo: −4.2 mm
